# Test results as given in patent US20230324392A1, “METHODS AND COMPOSITIONS FOR TARGETING CYTOSOLIC DSDNA SIGNALING IN CHROMOSOMALLY UNSTABLE CANCERS” (MEMORIAL SLOAN KETTERING CANCER CENTER, priority 2020, published 2023).
# Several values for one entry are separate records, joined by “and”; a condition that tells them apart may be missing. Equal values may be shown once.
# Legend:
# [1] = Blood chemistry of mice treated with C-176; assay type: in vivo, mouse; conditions: animals 1, 2
# B16F10, 4T1, and CT26 = test: Wound scratch assay for cell migration; assay type: cell-based, mouse; conditions: C176 at 1 μM; all three metastatic cancer cell lines
# Experimental: Wound scratch assay for cell migration: Tumor cell lines B16F10, 4T1, and CT26 were seeded in 6 well plates. When cells reached>90% confluence they were treated with 0.5 μM mitomycin C (M4287, Sigma-Aldrich, St. Louis, MO) for 2 hours, after which a wound was formed using a sterile p200 pipette tip. Thereafter cells were washed once with fresh media, following by treatment with C176 at 1 μM (Probechem, China) or DMSO control in media containing 1% FBS. Images were obtained at 0, 4, 8, and 12 hours using Olympus CKX53 microscope at 4× magnification. The wound surface area was measured and quantified using ImageJ software (MRI Wound Healing tool-dev.mri.cnrs.fr/projects/imagej-macros/wiki/Wound_Healing_Tool).
# B16F10 cells = conditions: 1 μM C-176, 48 hours
# Experimental: RNA was extracted using the RNeasy Mini Kit (Qiagen, Hilden, Germany, 74104). Non-strand-specific paired end sequencing libraries were generated with TruSeq Stranded mRNA (Illumina, San Diego, CA, 20020594) and sequenced on the Illumina NovaSeq platform. Reads were mapped to the mouse reference GRCm38 with the Broad Picard Pipeline (broadinstitute.github.io/picard/). […] Differential analysis was performed by DESeq2 (v1.24.0) as described by Love, M. I., et al., Genome Biol. 15: 550 (2014), the totality of which is incorporated herein by reference. Gene set enrichment analysis was performed on the normalized reads estimated by DESeq2.
# murine STING isoform = biological target: T1, murine STING isoform (Mus musculus, UniProt Q3TBT3); test: Immunoblots of phosphorylated p65, RelB and IRF3 in C-176 treated tumor cells; assay type: cell-based
# T1 construct: endogenous in cells
# T1 sequence (Q3TBT3 1-378): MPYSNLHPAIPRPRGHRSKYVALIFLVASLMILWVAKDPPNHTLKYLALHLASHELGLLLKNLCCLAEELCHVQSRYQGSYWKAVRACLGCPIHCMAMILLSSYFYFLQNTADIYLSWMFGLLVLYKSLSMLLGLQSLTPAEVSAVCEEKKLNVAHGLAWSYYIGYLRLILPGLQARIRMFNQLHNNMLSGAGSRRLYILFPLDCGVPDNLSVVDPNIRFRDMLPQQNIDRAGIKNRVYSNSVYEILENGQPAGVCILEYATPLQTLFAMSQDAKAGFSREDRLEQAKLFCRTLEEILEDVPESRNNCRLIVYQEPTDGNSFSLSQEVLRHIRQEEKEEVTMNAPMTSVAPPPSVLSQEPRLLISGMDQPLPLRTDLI
# Experimental: Immunoblotting: Cells were pelleted and lysed using RIPA buffer. Protein concentration was determined using BCA protein assay and 20-30 μg total protein were loaded in each lane. Proteins were separated by gradient SDS-PAGE and transferred to PVDF or nitrocellulose membranes. See Table 2 for antibody information. Membranes were imaged using the LI-COR Odyssey software. Relative STING protein levels were quantified by measuring band intensities on immunoblots using Image J software, background was subtracted and normalized to loading control. […] Cells were washed with ice-cold PBS and harvested using radio-immunoprecipitation assay (RIPA) lysis buffer containing protease and phosphatase inhibitors (Roche, Basel, Switzerland). Cells were lysed with a probe sonicator for 20 s. Protein quantification was performed using Pierce™ Rapid Gold BCA Protein Assay Kit (Thermo Fisher Scientific, Waltham, MA). Proteins were reduced at 95° C. for 5 mins with NuPAGE™ LDS Sample Buffer (4×) containing NuPAGE™ Sample Reducing Agent (10×). Lysates (40 μg protein/well) were resolved on NuPAGE™ 4-12% Bis-Tris Protein Gels (Invitro-gen) and transferred to polyvinylidene difluoride (PVDF) membranes (Thermo Fisher Scientific, Waltham, MA) using a wet transfer system. […] Images were captured by ChemiDoc Imaging Systems (Bio-Rad, UK) and densitometries were determined by ImageJ.
structure (smiles),measurement,setting,value
O=C(Nc1ccc(I)cc1)c1ccc([N+](=O)[O-])o1 [C-176],A/G Ratio,[1],1.3 and 1.4
same,Anion Gap,[1],26 and 32
same,BASELINE CORTISOL,[1],0.811 and 0.662
same,BUN/CREA Ratio,[1],85.0 and 84.2
same,DBIL,[1],0.0 mg/dL
same,GGT,[1],0 U/L
same,IBIL,[1],0.1
same,Na/K,[1],19 and 16
same,TCO2,[1],24 mEq/L and 18 mEq/L
same,CREA,[1]; reference range 0.2-0.5,0.20 mg/dL and 0.19 mg/dL
same,TBIL,[1]; reference range 0.2-0.6,0.1 mg/dL
same,GLOB,[1]; reference range 1.7-2.2,2.3 g/dL and 1.9 g/dL
same,ALB,[1]; reference range 2.4-4.3,3.1 g/dL and 2.6 g/dL
same,TP,[1]; reference range 4.8-7.2,5.4 g/dL and 4.5 g/dL
same,BUN,[1]; reference range 5.0-28,17 mg/dL and 16 mg/dL
same,K,[1]; reference range 7.3-11.1,8.1 mEq/L and 9.7 mEq/L
same,Ca,[1]; reference range 9.5-12.5,10.0 mg/dL and 9.9 mg/dL
same,ALT,[1]; reference range 27-195,26 U/L and 32 U/L
same,AST,[1]; reference range 54-77,134 U/L and 69 U/L
same,CHOL,[1]; reference range 55-169,103 mg/dL and 93 mg/dL
same,TRIG,[1]; reference range 67-289,82 mg/dL and 80 mg/dL
same,ALP,[1]; reference range 105-370,61 U/L and 40 U/L
same,CL,[1]; reference range 111-134,115 mEq/L and 113 mEq/L
same,Na,[1]; reference range 145-181,157 mEq/L and 153 mEq/L
same,GLU,[1]; reference range 172-372,205 mg/dL and 210 mg/dL
same,migration,"B16F10, 4T1, and CT26",significant reductions
same,"baseline expression of inflammation-related genes (Ccl5, Cxcl10, Isg15)",B16F10 cells,significant reductions
same,expression of STING-dependent genes,B16F10 cells,significantly reduced
same,gene set enrichment analysis (GSEA) pathways,B16F10 cells,downregulation of pathways related to inflammation and of genes involved in the epithelial-to-mesenchymal transition (EMT)
same,phosphorylated pools of the NF-κB transcription factors p65 and RelB,"murine STING isoform; baseline, B16F10, 4T1, CT26 cells",significant reductions
same,IRF3 phosphorylation,murine STING isoform; upon transfection of 20 μg/ml cGAMP,suppressed
